The results in this text go back to ChEMBL document CHEMBL4834473, “Novel hydroxybenzylamine-deoxyvasicinone hybrids as anticholinesterase therapeutics for Alzheimer's disease” (Bioorg Med Chem, 2021).

Experiment [1] has as its target Acetylcholinesterase (Homo sapiens) (UniProt P22303). Briefly: Inhibition of AChE (unknown origin)-induced amyloid beta (1 to 42) aggregation at 1 to 5 uM measured after 24 hrs by ThT flourescence assay. Conditions: dose 1-5 µM.
The target in experiment [2] is Amyloid-beta precursor protein (Homo sapiens, UniProt P05067). Briefly: Inhibition of human amyloid beta (1 to 42) self-induced aggregation measured after 48 hrs by ThT flourescence assay.
Experiment [3] can be described thus: Selectivity index, ratio of IC50 for equine serum BChE to IC50 for electric eel AChE.
Another experiment deals with Acetylcholinesterase (Electrophorus electricus, UniProt O42275). Kind of experiment: Inhibition of Electric eel AChE using acetylthiocholine iodide as substrate preincubated for 10 mins followed by addition of substrate and measured after 15 mins by Ellman's method. On the technique in general: In Ellman's method for cholinesterases, released thiocholine reacts with DTNB.

The next experiment deals with Cholinesterase (Equus caballus, UniProt P81908). Kind of experiment: Inhibition of equine serum BChE using butyrylthiocholine iodide as substrate preincubated for 10 mins followed by addition of substrate and measured after 15 mins by Ellman's method. The class given is cell-free.
Experiment [4] concerns the target Acetylcholinesterase (Electrophorus electricus) (UniProt O42275). Kind of experiment: Non-competitive/mixed inhibition of electric eel AChE using varying concentrations of acetylthiocholine iodide as substrate at 0.16 to 0.64 uM measured every 2 mins for 10 mins by Lineweaver-Burk plot analysis. As to conditions: dose 0.16-0.64 µM.

Calls of active or inactive are those of the source. The calls are words filed in the database; no cut-off is given here.

Sequence of Amyloid-beta precursor protein (P05067 whole entry): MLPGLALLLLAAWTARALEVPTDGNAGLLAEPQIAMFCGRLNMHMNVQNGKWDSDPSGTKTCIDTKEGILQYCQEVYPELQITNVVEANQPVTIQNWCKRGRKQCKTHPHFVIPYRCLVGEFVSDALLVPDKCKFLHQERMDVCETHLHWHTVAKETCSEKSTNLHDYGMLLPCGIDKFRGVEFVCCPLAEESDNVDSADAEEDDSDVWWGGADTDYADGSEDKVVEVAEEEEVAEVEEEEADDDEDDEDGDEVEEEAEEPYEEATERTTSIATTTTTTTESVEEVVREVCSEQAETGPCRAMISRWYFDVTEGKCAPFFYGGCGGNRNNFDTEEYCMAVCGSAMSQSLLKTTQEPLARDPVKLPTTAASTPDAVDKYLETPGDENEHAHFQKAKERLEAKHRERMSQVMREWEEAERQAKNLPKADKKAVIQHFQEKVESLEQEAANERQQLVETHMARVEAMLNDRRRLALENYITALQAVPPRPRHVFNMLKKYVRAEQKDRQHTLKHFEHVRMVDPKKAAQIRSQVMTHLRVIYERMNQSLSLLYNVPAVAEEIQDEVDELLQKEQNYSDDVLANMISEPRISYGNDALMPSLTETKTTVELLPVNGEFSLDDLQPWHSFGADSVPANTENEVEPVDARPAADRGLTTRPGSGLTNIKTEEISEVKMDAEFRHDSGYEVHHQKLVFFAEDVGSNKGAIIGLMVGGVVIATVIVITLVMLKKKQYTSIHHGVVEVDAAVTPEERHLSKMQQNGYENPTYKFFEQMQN
Sequence of Acetylcholinesterase (O42275 whole entry): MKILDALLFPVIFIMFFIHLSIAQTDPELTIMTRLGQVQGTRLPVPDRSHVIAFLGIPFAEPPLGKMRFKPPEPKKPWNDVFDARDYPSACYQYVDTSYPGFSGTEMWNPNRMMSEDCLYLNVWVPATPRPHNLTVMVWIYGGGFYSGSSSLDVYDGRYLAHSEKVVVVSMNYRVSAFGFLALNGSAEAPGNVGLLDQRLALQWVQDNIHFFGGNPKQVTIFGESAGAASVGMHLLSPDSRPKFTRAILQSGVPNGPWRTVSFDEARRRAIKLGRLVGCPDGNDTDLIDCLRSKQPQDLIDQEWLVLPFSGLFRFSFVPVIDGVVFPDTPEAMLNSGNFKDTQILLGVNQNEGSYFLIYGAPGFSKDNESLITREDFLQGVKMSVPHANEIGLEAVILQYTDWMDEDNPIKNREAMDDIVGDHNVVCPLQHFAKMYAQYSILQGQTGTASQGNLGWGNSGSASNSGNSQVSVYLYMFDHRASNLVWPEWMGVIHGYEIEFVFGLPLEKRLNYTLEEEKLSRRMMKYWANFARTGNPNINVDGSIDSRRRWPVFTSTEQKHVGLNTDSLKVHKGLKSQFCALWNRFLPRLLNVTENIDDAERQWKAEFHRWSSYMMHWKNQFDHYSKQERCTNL
Sequence of Acetylcholinesterase (Homo sapiens) (P22303 whole entry): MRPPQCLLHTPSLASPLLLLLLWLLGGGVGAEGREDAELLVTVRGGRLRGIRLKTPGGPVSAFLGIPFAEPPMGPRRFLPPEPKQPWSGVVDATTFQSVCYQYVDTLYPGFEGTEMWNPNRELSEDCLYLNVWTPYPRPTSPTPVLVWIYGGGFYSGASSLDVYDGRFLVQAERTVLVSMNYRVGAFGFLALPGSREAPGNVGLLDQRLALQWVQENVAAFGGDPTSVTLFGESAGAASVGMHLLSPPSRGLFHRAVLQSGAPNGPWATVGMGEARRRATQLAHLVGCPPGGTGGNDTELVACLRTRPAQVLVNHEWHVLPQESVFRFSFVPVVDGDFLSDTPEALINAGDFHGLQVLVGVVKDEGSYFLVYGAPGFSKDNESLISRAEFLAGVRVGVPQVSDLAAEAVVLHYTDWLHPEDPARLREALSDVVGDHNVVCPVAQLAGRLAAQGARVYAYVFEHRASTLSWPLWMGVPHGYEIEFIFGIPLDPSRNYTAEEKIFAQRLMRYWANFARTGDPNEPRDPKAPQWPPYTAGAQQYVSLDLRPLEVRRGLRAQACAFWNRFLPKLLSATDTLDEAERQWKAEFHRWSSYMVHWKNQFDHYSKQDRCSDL
Sequence of Cholinesterase (P81908 whole entry): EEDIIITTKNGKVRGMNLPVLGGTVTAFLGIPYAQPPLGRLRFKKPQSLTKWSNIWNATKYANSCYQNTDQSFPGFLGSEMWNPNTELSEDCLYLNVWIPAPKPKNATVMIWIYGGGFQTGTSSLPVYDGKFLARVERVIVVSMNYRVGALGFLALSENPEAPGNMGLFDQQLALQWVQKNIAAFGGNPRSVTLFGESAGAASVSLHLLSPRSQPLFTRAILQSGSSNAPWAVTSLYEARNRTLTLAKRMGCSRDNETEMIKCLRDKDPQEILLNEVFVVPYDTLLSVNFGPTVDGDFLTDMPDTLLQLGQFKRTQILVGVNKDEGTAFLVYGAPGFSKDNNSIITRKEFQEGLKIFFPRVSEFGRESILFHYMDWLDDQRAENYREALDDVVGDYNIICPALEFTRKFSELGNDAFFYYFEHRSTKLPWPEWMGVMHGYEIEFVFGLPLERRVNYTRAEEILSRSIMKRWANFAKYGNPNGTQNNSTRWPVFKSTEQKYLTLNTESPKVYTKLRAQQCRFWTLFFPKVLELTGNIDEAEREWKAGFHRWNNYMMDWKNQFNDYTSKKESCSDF
Sequence of Acetylcholinesterase (Electrophorus electricus) (O42275 24-633 limits assumed): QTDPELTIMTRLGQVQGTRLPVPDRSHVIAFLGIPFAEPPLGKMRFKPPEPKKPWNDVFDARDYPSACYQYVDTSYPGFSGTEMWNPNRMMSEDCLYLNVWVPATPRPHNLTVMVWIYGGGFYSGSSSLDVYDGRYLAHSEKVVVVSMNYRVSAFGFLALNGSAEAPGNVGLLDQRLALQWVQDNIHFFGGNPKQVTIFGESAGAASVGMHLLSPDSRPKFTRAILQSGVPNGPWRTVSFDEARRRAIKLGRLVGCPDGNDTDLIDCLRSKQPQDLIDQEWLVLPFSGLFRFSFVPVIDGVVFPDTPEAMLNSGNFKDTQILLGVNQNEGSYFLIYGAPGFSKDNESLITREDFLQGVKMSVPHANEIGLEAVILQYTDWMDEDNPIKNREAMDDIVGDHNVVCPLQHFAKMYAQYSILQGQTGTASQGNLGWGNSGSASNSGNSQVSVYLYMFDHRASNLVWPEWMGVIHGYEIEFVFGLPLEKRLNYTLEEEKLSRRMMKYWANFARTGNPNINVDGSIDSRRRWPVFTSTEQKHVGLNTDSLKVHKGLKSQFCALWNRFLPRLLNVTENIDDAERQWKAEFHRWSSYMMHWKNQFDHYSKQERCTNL

Turning to `COc1cccc(CNc2cc3c(=O)n4c(nc3cc2C)CCC4)c1O`, the inhibition (commonly the share of the control response that was lost under treatment) in experiment [1] amounted to 55%. Moreover, the IC50 (commonly the midpoint of a concentration-inhibition curve) in experiment [2] was determined as 4.26 µM; on Acetylcholinesterase it was 0.83 µM; against Cholinesterase, 16.2 µM. Besides, the Ratio IC50 in experiment [3] worked out at 19.5.
As for `Cc1cc2nc3n(c(=O)c2cc1NCc1cc(Br)ccc1O)CCC3`, the half-maximal inhibitory concentration (IC50) in experiment [2] amounted to 7.37 µM; at Acetylcholinesterase, 5.27 µM; against Cholinesterase, 20.8 µM. In addition, in experiment [3], the Ratio IC50 was determined as 3.95.
With `Cc1cc2nc3n(c(=O)c2cc1NCc1ccccc1O)CCC3`, the inhibition in experiment [1] amounted to 40.2%. The half-inhibitory concentration (IC50) came out at 5.09 µM in experiment [2], 1.58 µM at Acetylcholinesterase and 18.5 µM against Cholinesterase. Also, the Ratio IC50 in experiment [3] turned out to be 11.7.
`COc1cccc(CNc2ccc3nc4n(c(=O)c3c2)CCC4)c1O` yielded an inhibition in experiment [1] of 55.1%. In addition, the IC50 in experiment [2] came out at 4.2 µM; against Acetylcholinesterase, 0.9 µM; at Cholinesterase, 16.1 µM. Further, in experiment [3], the Ratio IC50 came to 17.8.
Regarding `O=c1c2cc(NCc3cc(F)ccc3O)ccc2nc2n1CCC2`, the concentration for half-maximal inhibition (IC50) in experiment [2] was determined as 6.3 µM; on Acetylcholinesterase it was 2.51 µM; against Cholinesterase, 19.9 µM. In experiment [3], the Ratio IC50 came out at 7.91.
In experiment [1], `Oc1c(I)cc(Cl)c2cccnc12` [CLIOQUINOL] yielded an inhibition of 11.5%. The compound further had an IC50 in experiment [2] of 9.8 µM.
Consider `COc1ccc(CNc2cc3c(=O)n4c(nc3cc2C)CCC4)c(O)c1`, for which, in experiment [1], the inhibition stood at 72.6%. Moreover, the inhibition entry in experiment [4] was “Active”. For the same compound, the 50% inhibitory concentration (IC50) came to 3.22 µM in experiment [2], 0.34 µM on Acetylcholinesterase and 14.6 µM on Cholinesterase. The Ratio IC50 in experiment [3] came out at 42.9.
As for `O=c1c2cc(NCc3ccc(Cl)cc3O)ccc2nc2n1CCC2`, the figures for the IC50 (in experiment [2]; on Acetylcholinesterase; at Cholinesterase) were 7.02 µM, 4.78 µM and 21.7 µM, respectively. Besides, the Ratio IC50 in experiment [3] was determined as 4.52.
In experiment [1], `O=c1c2ccccc2nc2n1CCC2` [DEOXYVASICINONE] showed an inhibition of 3.83%. Further, the IC50 against Acetylcholinesterase is 24 µM; against Cholinesterase, 25 µM.
Regarding `Cc1cc2nc3n(c(=O)c2cc1NCc1cc(F)ccc1O)CCC3`, the values for the half-maximal inhibitory concentration (IC50) (in experiment [2]; at Acetylcholinesterase; on Cholinesterase) were 6.33 µM, 2.7 µM and 20.4 µM, respectively. Besides, the Ratio IC50 in experiment [3] amounted to 7.56.
For `O=c1c2cc(NCc3cccc(Br)c3O)ccc2nc2n1CCC2`, the concentration for half-maximal inhibition (IC50) in experiment [2] worked out at 8.34 µM; against Acetylcholinesterase, 5.8 µM; on Cholinesterase it was 20.9 µM. Further, the Ratio IC50 in experiment [3] came to 3.6.
The matching figures for `O=c1c2cc(NCc3cc(Br)ccc3O)ccc2nc2n1CCC2`: 7.63 µM, 5.51 µM, 21.5 µM and 3.9.
Consider `Cc1cc2nc3n(c(=O)c2cc1NCc1cccc(Br)c1O)CCC3`, for which the IC50 stood at 9.27 µM in experiment [2], 6.35 µM at Acetylcholinesterase and 21.6 µM against Cholinesterase. For the same compound, the Ratio IC50 in experiment [3] is 3.4.
Regarding `O=c1c2cc(NCc3ccccc3O)ccc2nc2n1CCC2`, the inhibition in experiment [1] was 49%. For the same compound, the half-inhibitory concentration (IC50) is 4.69 µM in experiment [2], 1.53 µM on Acetylcholinesterase and 18.2 µM on Cholinesterase. The Ratio IC50 in experiment [3] worked out at 11.9.
As for `Cc1cc2nc3n(c(=O)c2cc1NCc1ccc(Cl)cc1O)CCC3`, the figures for the IC50 (in experiment [2]; against Acetylcholinesterase; at Cholinesterase) were 6.1 µM, 3.07 µM and 20.5 µM, respectively. Further, in experiment [3], the Ratio IC50 stood at 6.68.
With `COc1ccc(CNc2ccc3nc4n(c(=O)c3c2)CCC4)c(O)c1`, the inhibition in experiment [1] was 68.7%. Also, the IC50 in experiment [2] was determined as 3.91 µM; on Acetylcholinesterase it was 0.38 µM; against Cholinesterase it was 15.4 µM. The Ratio IC50 in experiment [3] turned out to be 40.5.
